We go through two compounds from US20160331779A1 (priority 2015, published 2016).

As usually defined, the EC50 is the midpoint of the concentration-response curve.

Where “and” joins values, the source holds several entries; their conditions need not be identical. Equal entries are not always repeated. Where two headings read alike, the source gives them in different places.

Data set [1] relates to streptokinase enzyme from S. pyogenes. In words: streptokinase inactivation, clot formation enzymatic assay. In kind it is biochemical. As to conditions: streptokinase 175 U/mL incubated 1 hour; fibrin remained insoluble, glass bead remained at top. The procedure:
Inactivation of streptokinase was determined by clot formation enzymatic assay (Sigma Aldrich, St. Louis, Mo.), whereby thrombin converts the soluble fibrinogen into […] (Crew 2013). In the presence of streptokinase enzyme from S. pyogenes, the insoluble fibrin is converted into soluble fibrin fragments. Several hours before the study, streptokinase 175 U/mL) was incubated with the irrigation solution for 1 hour, followed by inactivation of excess irrigation solution by adding an equal volume of 20 mM methionine for 1 hour at room temperature.
In a separate glass tube, fibrinogen solution containing borate buffer, gelatin diluent, and plasminogen were mixed by swirling, and then equilibrated at 37° C. for 3 minutes. Irrigation solution and methionine treated streptokinase was added to the solution, mixed by swirling, and equilibrated at 37° C. for 1 minute prior to the addition of thrombin. The solution was mixed by swirling and equilibrated at 37° C. for approximately 2-3 minutes to allow for clot formation. A 4 mm glass bead was added to the top of the reaction mixture, and the time for the glassbead to touch the bottom of the tube was observed. In this clot assay, 0.001 μg/mL of the hypochlorous acid completely inactivated streptokinase, causing the fibrin to remain insoluble in solution, and the glass bead to remain at the top of the reaction mixture.

The next data set relates to A549 cells. As to conditions: pH 4.
A further data set deals with Aspergillus flavus. The note with it: added to the fungal growth medium prior to inoculation; cited from earlier work.
Data set [2] has as its target alpha-hemolysin toxin of S. aureus (Staphylococcus aureus, UniProt P09616). In kind it is cell-based.
For data set [3] the following is noted: 2.5% NaOCl, cited from earlier work.
Data set [4] concerns root canal microorganisms. The note with it: 2.5% NaOCl, after biomechanical preparation; cited from earlier work.

Chain of alpha-hemolysin toxin of S. aureus (P09616 27-319 limits assumed): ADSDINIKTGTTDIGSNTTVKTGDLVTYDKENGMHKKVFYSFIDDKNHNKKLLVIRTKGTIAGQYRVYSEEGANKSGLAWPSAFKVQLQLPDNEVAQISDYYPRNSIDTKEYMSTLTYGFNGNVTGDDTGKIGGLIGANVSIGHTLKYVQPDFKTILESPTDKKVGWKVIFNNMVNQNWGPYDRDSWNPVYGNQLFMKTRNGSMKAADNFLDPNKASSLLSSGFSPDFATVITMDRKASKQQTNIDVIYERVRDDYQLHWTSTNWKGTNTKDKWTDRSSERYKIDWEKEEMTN

`OCl` [HOCl, hypochlorous acid]: the “concentration that completely inactivated streptokinase” value in data set [1] is 0.001 µg/mL. The “Dilution of wound exudate cytotoxic to A549 cells” value with A549 cells is listed as 1:4.
Regarding `[Na+].[O-]Cl` [hypochlorite, sodium hypochlorite], the “NaOCl concentration that completely inhibited the fungal growth” value in the data set with Aspergillus flavus was 2.8 mM. For the same compound, the EC50 in data set [2] was 0.95 ± 0.18 µg/mL and 0.99 ± 0.06 µg/mL. The results for the endotoxins reduced in data set [3] (7 days after biomechanical preparation) and in data set [3] (immediately after biomechanical preparation) were 83.2% and 88.8%, respectively. Further, the “root canal microorganisms eliminated” value in data set [4] was 100%.
